Experiments:
[1] = test system: induction of TAT by dexamethasone in HepG2 cells; test: Hep G2 TAT assay (inhibition of dexamethasone-induced TAT); assay type: cell-based, human; conditions: challenge of 100 nM dexamethasone, IC50 converted to Ki by Cheng and Prusoff equation
[2] = biological target: glucocorticoid receptor (GR) recombinant ligand binding domain (LBD) (Homo sapiens (Human), UniProt P04150); test: GR binding fluorescence polarisation (FP) assay; conditions: displacement of fluorescently tagged ligand
Description: Binding of test compounds to the glucocorticoid receptor (GR) is determined using a fluorescence polarisation (FP) assay utilising a recombinant ligand binding domain (LBD) of GR. The test compounds are assessed by their ability to displace a fluorescently tagged ligand and detection of the resulting decrease in fluorescence polarisation.

Chain of glucocorticoid receptor (GR) recombinant ligand binding domain (LBD) (P04150 524-758): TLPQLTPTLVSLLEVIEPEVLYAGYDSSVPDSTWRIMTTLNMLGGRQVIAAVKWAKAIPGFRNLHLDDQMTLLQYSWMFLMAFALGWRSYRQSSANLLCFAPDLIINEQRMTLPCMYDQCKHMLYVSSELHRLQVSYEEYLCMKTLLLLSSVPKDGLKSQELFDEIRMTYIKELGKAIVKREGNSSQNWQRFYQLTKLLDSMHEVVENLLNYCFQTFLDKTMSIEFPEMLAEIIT

| Compound | IC50 [2] [nM] | Ki [1] [nM] |
| --- | --- | --- |
| Cc1cc2c(cnn2-c2ccc(F)cc2)cc1C1(Cc2ccccc2)CCN(C(=O)c2ccccc2)C1 (centres unmarked) [Example 193, (3-benzyl-3-(1-(4-fluorophenyl)-6-methyl-1H-indazol-5-yl)pyrrolidin-1-yl)(phenyl)methanone] | 28 | 25 |
| CC(=O)N1CCC(Cc2ccc(C(F)(F)F)cc2)(c2cc3cnn(-c4ccc(F)cc4)c3cc2C)C1 (centres unmarked) [Example 194, 1-(3-(1-(4-fluorophenyl)-6-methyl-1H-indazol-5-yl)-3-(4-(trifluoromethyl)benzyl)pyrrolidin-1-yl)ethan-1-one] | 109 | 102 |
| COc1cc2c(cnn2-c2ccc(F)cc2)cc1C1(Cc2ccc(F)cc2)CCN(S(=O)(=O)c2cnn(C)n2)C1 (centres unmarked) [Example 219, 5-(3-(4-fluorobenzyl)-1-((2-methyl-2H-1,2,3-triazol-4-yl)sulfonyl)pyrrolidin-3-yl)-1-(4-fluorophenyl)-6-methoxy-1H-indazole] | 26 | 13 |
| Cc1cc2c(cnn2-c2ccc(F)cc2)cc1C1(CC#CC2CC2)CCN(S(=O)(=O)c2cnn(C)c2)C1 (centres unmarked) [Example 221, 5-(3-(3-cyclopropylprop-2-yn-1-yl)-1-((1-methyl-1H-pyrazol-4-yl)sulfonyl)pyrrolidin-3-yl)-1-(4-fluorophenyl)-6-methyl-1H-indazole] | 56 | 45 |
| Cn1ncc(S(=O)(=O)N2CCC(Cc3ccccc3)(c3cc4cnn(-c5ccc(F)cc5)c4cc3Cl)C2)n1 (centres unmarked) [Example 226, 5-(3-benzyl-1-((2-methyl-2H-1,2,3-triazol-4-yl)sulfonyl)pyrrolidin-3-yl)-6-chloro-1-(4-fluorophenyl)-1H-indazole] | 21 | 13 |
| COc1cc2c(cnn2-c2ccc(F)cc2)cc1C1(Cc2ccccc2)CCN(C(=O)c2nccs2)C1 (centres unmarked) [Example 233, (3-benzyl-3-(1-(4-fluorophenyl)-6-methoxy-1H-indazol-5-yl)pyrrolidin-1-yl)(thiazol-2-yl)methanone] | 70 | 52 |
| Cc1cc2c(cnn2-c2ccc(F)c(C#N)c2)cc1C1(Cc2ccccc2)CCN(S(=O)(=O)c2cnn(C)n2)C1 (centres unmarked) [Example 239, 5-(5-(3-benzyl-1-((2-methyl-2H-1,2,3-triazol-4-yl)sulfonyl)pyrrolidin-3-yl)-6-methyl-1H-indazol-1-yl)-2-fluorobenzonitrile] | 28 | 36 |
| COc1cc2c(cnn2-c2ccc(F)c(C#N)c2)cc1C1(Cc2ccccc2)CCN(S(=O)(=O)c2cnn(C)n2)C1 (centres unmarked) [Example 243, 5-(5-(3-benzyl-1-((2-methyl-2H-1,2,3-triazol-4-yl)sulfonyl)pyrrolidin-3-yl)-6-methoxy-1H-indazol-1-yl)-2-fluorobenzonitrile] | 65 | 38 |
| Cc1cc2c(cnn2-c2ccc(=O)n(C(F)F)c2)cc1C1(Cc2ccccc2)CCN(S(=O)(=O)c2cnn(C)n2)C1 (centres unmarked) [Example 247, 5-(5-(3-benzyl-1-((2-methyl-2H-1,2,3-triazol-4-yl)sulfonyl)pyrrolidin-3-yl)-6-methyl-1H-indazol-1-yl)-1-(difluoromethyl)pyridin-2(1H)-one] | 55 | 240 |
| Cc1cc2c(cnn2-c2cc(Cl)c(=O)n(C)c2)cc1C1(Cc2ccccc2)CCN(S(=O)(=O)c2cnn(C)n2)C1 (centres unmarked) [Example 248, 5-(5-(3-benzyl-1-((2-methyl-2H-1,2,3-triazol-4-yl)sulfonyl)pyrrolidin-3-yl)-6-methyl-1H-indazol-1-yl)-3-chloro-1-methylpyridin-2(1H)-one] | 55 | 260 |
| COc1nn(C)cc1-n1ncc2cc(C3(Cc4ccccc4)CCN(S(=O)(=O)c4cnn(C)n4)C3)c(C)cc21 (centres unmarked) [Example 251, 5-(3-benzyl-1-((2-methyl-2H-1,2,3-triazol-4-yl)sulfonyl)pyrrolidin-3-yl)-1-(3-methoxy-1-methyl-1H-pyrazol-4-yl)-6-methyl-1H-indazole] | 27 | 180 |
| Cc1cc2c(cnn2-c2cnn(C3CC3)c2)cc1C1(Cc2ccccc2)CCN(S(=O)(=O)c2cnn(C)n2)C1 (centres unmarked) [Example 252, 5-(3-benzyl-1-((2-methyl-2H-1,2,3-triazol-4-yl)sulfonyl)pyrrolidin-3-yl)-1-(1-cyclopropyl-1H-pyrazol-4-yl)-6-methyl-1H-indazole] | 29 | 94 |
| Cc1cc2c(cnn2-c2cnn(C)c2C)cc1C1(Cc2ccccc2)CCN(S(=O)(=O)c2cnn(C)n2)C1 (centres unmarked) [Example 253, 5-(3-benzyl-1-((2-methyl-2H-1,2,3-triazol-4-yl)sulfonyl)pyrrolidin-3-yl)-1-(1,5-dimethyl-1H-pyrazol-4-yl)-6-methyl-1H-indazole] | 24 | 240 |

Stronger by IC50 [2], values ahead:

| IC50 [2] [nM] | Compound | Ki [1] [nM] |
| --- | --- | --- |
| 14 | CC(=O)N1CCC(Cc2cccc(C(F)(F)F)c2)(c2cc3cnn(-c4ccc(F)cc4)c3cc2C)C1 (centres unmarked) [Example 192, 1-(3-(1-(4-fluorophenyl)-6-methyl-1H-indazol-5-yl)-3-(3-(trifluoromethyl)benzyl)pyrrolidin-1-yl)ethan-1-one] | 72 |
| 17 | Cc1cc2c(cnn2-c2ccc(F)cc2)cc1C1(Cc2ccccc2)CCN(S(=O)(=O)c2cnn(C)n2)C1 (centres unmarked) [Example 213, 5-(3-benzyl-1-((2-methyl-2H-1,2,3-triazol-4-yl)sulfonyl)pyrrolidin-3-yl)-1-(4-fluorophenyl)-6-methyl-1H-indazole] | 13 |
| 10 | Cc1cc2c(cnn2-c2ccc(F)cc2)cc1C1(Cc2ccccc2)CCN(S(=O)(=O)c2ccn(C)n2)C1 (centres unmarked) [Example 215, 5-(3-benzyl-1-((1-methyl-1H-pyrazol-3-yl)sulfonyl)pyrrolidin-3-yl)-1-(4-fluorophenyl)-6-methyl-1H-indazole] | 10 |
| 17 | CCn1cc(S(=O)(=O)N2CCC(Cc3ccc(F)cc3)(c3cc4cnn(-c5ccc(F)cc5)c4cc3OC)C2)cn1 (centres unmarked) [Example 217, 5-(1-((1-ethyl-1H-pyrazol-4-yl)sulfonyl)-3-(4-fluorobenzyl)pyrrolidin-3-yl)-1-(4-fluorophenyl)-6-methoxy-1H-indazole] | 14 |
| 14 | COc1cc2c(cnn2-c2ccc(F)cc2)cc1C1(Cc2ccccc2)CCN(S(=O)(=O)c2cnn(C)n2)C1 (centres unmarked) [Example 218, 5-(3-benzyl-1-((2-methyl-2H-1,2,3-triazol-4-yl)sulfonyl)pyrrolidin-3-yl)-1-(4-fluorophenyl)-6-methoxy-1H-indazole] | 10 |
| 11 | CS(=O)(=O)N1CCC(Cc2ccccc2)(c2cc3cnn(-c4ccc(F)cc4)c3cc2Cl)C1 (centres unmarked) [Example 222, 5-(3-benzyl-1-(methylsulfonyl)pyrrolidin-3-yl)-6-chloro-1-(4-fluorophenyl)-1H-indazole] | 39 |
| 14 | Cn1cc(S(=O)(=O)N2CCC(Cc3ccccc3)(c3cc4cnn(-c5ccc(F)cc5)c4cc3Cl)C2)cn1 (centres unmarked) [Example 223, 5-(3-benzyl-1-((1-methyl-1H-pyrazol-4-yl)sulfonyl)pyrrolidin-3-yl)-6-chloro-1-(4-fluorophenyl)-1H-indazole] | 38 |
| 13 | COc1cc2c(cnn2-c2ccc(F)cc2)cc1C1(Cc2ccccc2)CCN(C(=O)c2cncs2)C1 (centres unmarked) [Example 231, (3-benzyl-3-(1-(4-fluorophenyl)-6-methoxy-1H-indazol-5-yl)pyrrolidin-1-yl)(thiazol-5-yl)methanone] | 48 |
| 10 | Cc1cc2c(cnn2-c2ccc(F)cc2)cc1C1(Cc2ccccc2)CCN(C(=O)c2cncs2)C1 (centres unmarked) [Example 232, (3-benzyl-3-(1-(4-fluorophenyl)-6-methyl-1H-indazol-5-yl)pyrrolidin-1-yl)(thiazol-5-yl)methanone] | 37 |
| 12 | Cc1cc2c(cnn2-c2ccc(F)cc2)cc1C1(Cc2ccccc2)CCN(C(=O)c2cscn2)C1 (centres unmarked) [Example 235] | 34 |
| 4.8 | Cc1cc2c(cnn2-c2cc(C)c(=O)n(C)c2)cc1C1(Cc2ccccc2)CCN(S(=O)(=O)c2cnn(C)n2)C1 (centres unmarked) [Example 237, 5-(5-(3-benzyl-1-((2-methyl-2H-1,2,3-triazol-4-yl)sulfonyl)pyrrolidin-3-yl)-6-methyl-1H-indazol-1-yl)-1,3-dimethylpyridin-2(1H)-one] | 22 |
| 18 | Cc1cc2c(cnn2-c2ccc(F)c(CO)c2)cc1C1(Cc2ccccc2)CCN(S(=O)(=O)c2cnn(C)n2)C1 (centres unmarked) [Example 242, (5-(5-(3-benzyl-1-((2-methyl-2H-1,2,3-triazol-4-yl)sulfonyl)pyrrolidin-3-yl)-6-methyl-1H-indazol-1-yl)-2-fluorophenyl)methanol] | 44 |
| 6.3 | Cc1cc2c(cnn2-c2cc(F)c(=O)n(C)c2)cc1C1(Cc2ccccc2)CCN(S(=O)(=O)c2cnn(C)n2)C1 (centres unmarked) [Example 246, 5-(5-(3-benzyl-1-((2-methyl-2H-1,2,3-triazol-4-yl)sulfonyl)pyrrolidin-3-yl)-6-methyl-1H-indazol-1-yl)-3-fluoro-1-methylpyridin-2(1H)-one] | 49 |
| 4.8 | Cc1cc2c(cnn2-c2cnn(C)c2)cc1C1(Cc2ccccc2)CCN(S(=O)(=O)c2cnn(C)n2)C1 (centres unmarked) [Example 249, 5-(3-benzyl-1-((2-methyl-2H-1,2,3-triazol-4-yl)sulfonyl)pyrrolidin-3-yl)-6-methyl-1-(1-methyl-1H-pyrazol-4-yl)-1H-indazole] | 39 |
| 4.1 | [2H]C([2H])([2H])n1cc(-n2ncc3cc(C4(Cc5ccccc5)CCN(S(=O)(=O)c5cnn(C)n5)C4)c(C)cc32)cn1 (centres unmarked) [Example 250, 5-(3-benzyl-1-((2-methyl-2H-1,2,3-triazol-4-yl)sulfonyl)pyrrolidin-3-yl)-6-methyl-1-(1-(methyl-d3)-1H-pyrazol-4-yl)-1H-indazole] | 26 |
